According to PubChem BioAssay AID2060504 (Molecular Pharmacology Branch, DTP, NCI, 2025):

System: 636577-100-R-J1-PDC complex spheroid viability
Test: Anticancer human tumor 636577-100-R-J1-PDC patient-derived endometrial adenocarcinoma cell line growth inhibition [GQUAD]
Conditions: for IC50: curve of first compound; for viability, T/C: stronger effect = lower value
Outline: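 Multi-cell-type spheroids of tumor cells with HUVEC and mesenchymal stem cells, treated with drug combinations. Concentrations descend in half-log steps from near clinical Cmax, or from 10 microM where Cmax is unknown; viability read-out.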

[1] = second compound 0.0316 µM, first compound 0.0316 µM
[2] = second compound 0.0316 µM, first compound 0.1 µM
[3] = second compound 0.0316 µM, first compound 0.316 µM
[4] = second compound 0.0316 µM, first compound 1 µM
[5] = second compound 0.0316 µM, first compound 3.16 µM
[6] = second compound 0.0316 µM, first compound 10 µM
[7] = second compound 0.1 µM, first compound 0.0316 µM
[8] = second compound 0.1 µM, first compound 0.1 µM
[9] = second compound 0.1 µM, first compound 0.316 µM
[10] = second compound 0.1 µM, first compound 1 µM
[11] = second compound 0.1 µM, first compound 3.16 µM
[12] = second compound 0.1 µM, first compound 10 µM
[13] = second compound 0.316 µM, first compound 0.0316 µM
[14] = second compound 0.316 µM, first compound 0.1 µM
[15] = second compound 0.316 µM, first compound 0.316 µM
[16] = second compound 0.316 µM, first compound 1 µM
[17] = second compound 0.316 µM, first compound 3.16 µM
[18] = second compound 0.316 µM, first compound 10 µM
[19] = second compound 1 µM, first compound 0.0316 µM
[20] = second compound 1 µM, first compound 0.1 µM
[21] = second compound 1 µM, first compound 0.316 µM
[22] = second compound 1 µM, first compound 1 µM
[23] = second compound 1 µM, first compound 3.16 µM
[24] = second compound 1 µM, first compound 10 µM
[25] = second compound 3.16 µM, first compound 0.0316 µM
[26] = second compound 3.16 µM, first compound 0.1 µM
[27] = second compound 3.16 µM, first compound 0.316 µM
[28] = second compound 3.16 µM, first compound 1 µM
[29] = second compound 3.16 µM, first compound 3.16 µM
[30] = second compound 3.16 µM, first compound 10 µM
[31] = second compound 10 µM, first compound 0.0316 µM
[32] = second compound 10 µM, first compound 0.1 µM
[33] = second compound 10 µM, first compound 0.316 µM
[34] = second compound 10 µM, first compound 1 µM
[35] = second compound 10 µM, first compound 3.16 µM
[36] = second compound 10 µM, first compound 10 µM
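Further: viability read after seven days of drug exposure.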
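Wherever viability, T/C is given: luminescence signal used as a proxy for viable cells; 100% = DMSO vehicle control wells.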

CC(C)n1c(=O)n(C)c2cnc3cc(F)c(-c4ccc(OCCCN5CCCCC5)nc4)cc3c21 + Cc1[nH]c2ccc(F)cc2c1-c1nc2c3cccnc3c3ncccc3c2[nH]1
IC50 (second compound 0.0316 µM): > 10000 nM | IC50 (second compound 0.1 µM): 10000 nM | IC50 (second compound 0.316 µM): 7080 nM | IC50 (second compound 1 µM): 31.6 nM | IC50 (second compound 3.16 µM): 3590 nM | IC50 (second compound 10 µM): 6960 nM | viability, T/C [1]: 73.1% | viability, T/C [2]: 74.1% | viability, T/C [3]: 88.2% | viability, T/C [4]: 30% | viability, T/C [5]: 99.5% | viability, T/C [6]: 52.4% | viability, T/C [7]: 74.4% | viability, T/C [8]: 91% | viability, T/C [9]: 70.8% | viability, T/C [10]: 37.9% | viability, T/C [11]: 69.7% | viability, T/C [12]: 48.6% | viability, T/C [13]: 80.9% | viability, T/C [14]: 96.9% | viability, T/C [15]: 60.6% | viability, T/C [16]: 58.2% | viability, T/C [17]: 87.7% | viability, T/C [18]: 38.5% | viability, T/C [19]: 57.2% | viability, T/C [20]: 43.3% | viability, T/C [21]: 60.9% | viability, T/C [22]: 54.3% | viability, T/C [23]: 98.5% | viability, T/C [24]: 46.8% | viability, T/C [25]: 57.1% | viability, T/C [26]: 54.3% | viability, T/C [27]: 59.3% | viability, T/C [28]: 70.8% | viability, T/C [29]: 47% | viability, T/C [30]: 29.8% | viability, T/C [31]: 71.9% | viability, T/C [32]: 50.6% | viability, T/C [33]: 85.5% | viability, T/C [34]: 89.3% | viability, T/C [35]: 70% | viability, T/C [36]: 40%

CC1COCCN1c1cc(-c2ccnn2C)c2ccnc(-c3ccn[nH]3)c2n1 (stereo not drawn) + Cc1[nH]c2ccc(F)cc2c1-c1nc2c3cccnc3c3ncccc3c2[nH]1
IC50 (second compound 0.0316 µM): 96.7 nM | IC50 (second compound 0.1 µM): 84.9 nM | IC50 (second compound 0.316 µM): 105 nM | IC50 (second compound 1 µM): < 31.6 nM | IC50 (second compound 3.16 µM): < 31.6 nM | IC50 (second compound 10 µM): < 31.6 nM | viability, T/C [1]: 89.7% | viability, T/C [2]: 48.1% | viability, T/C [3]: 26.9% | viability, T/C [4]: 10.8% | viability, T/C [5]: 7.12% | viability, T/C [6]: 4.03% | viability, T/C [7]: 59.4% | viability, T/C [8]: 49.1% | viability, T/C [9]: 23.9% | viability, T/C [10]: 11.4% | viability, T/C [11]: 8.62% | viability, T/C [12]: 4.31% | viability, T/C [13]: 59.4% | viability, T/C [14]: 52.9% | viability, T/C [15]: 25.8% | viability, T/C [16]: 14.5% | viability, T/C [17]: 8.77% | viability, T/C [18]: 4.31% | viability, T/C [19]: 39% | viability, T/C [20]: 32.5% | viability, T/C [21]: 23% | viability, T/C [22]: 15% | viability, T/C [23]: 8.69% | viability, T/C [24]: 3.56% | viability, T/C [25]: 16.9% | viability, T/C [26]: 18.7% | viability, T/C [27]: 15.5% | viability, T/C [28]: 9.23% | viability, T/C [29]: 6.94% | viability, T/C [30]: 3.78% | viability, T/C [31]: 41.6% | viability, T/C [32]: 24.7% | viability, T/C [33]: 20.6% | viability, T/C [34]: 13.2% | viability, T/C [35]: 8.7% | viability, T/C [36]: 4.88%

CC1COCCN1c1cc(C2(O)CC3CCC(C2)O3)c2cnn(-c3ccn[nH]3)c2n1 (stereo not drawn) + Cc1[nH]c2ccc(F)cc2c1-c1nc2c3cccnc3c3ncccc3c2[nH]1
IC50 (second compound 0.0316 µM): 70.6 nM | IC50 (second compound 0.1 µM): 63.3 nM | IC50 (second compound 0.316 µM): 59.2 nM | IC50 (second compound 1 µM): < 31.6 nM | IC50 (second compound 3.16 µM): < 31.6 nM | IC50 (second compound 10 µM): < 31.6 nM | viability, T/C [1]: 82.9% | viability, T/C [2]: 33.8% | viability, T/C [3]: 18.5% | viability, T/C [4]: 7.11% | viability, T/C [5]: 3.67% | viability, T/C [6]: 1.06% | viability, T/C [7]: 71.2% | viability, T/C [8]: 35.3% | viability, T/C [9]: 18.7% | viability, T/C [10]: 8.6% | viability, T/C [11]: 3.75% | viability, T/C [12]: 1.19% | viability, T/C [13]: 67.1% | viability, T/C [14]: 36.1% | viability, T/C [15]: 15.7% | viability, T/C [16]: 8.55% | viability, T/C [17]: 4.01% | viability, T/C [18]: 1.3% | viability, T/C [19]: 32% | viability, T/C [20]: 26% | viability, T/C [21]: 14.9% | viability, T/C [22]: 8.44% | viability, T/C [23]: 3.77% | viability, T/C [24]: 1.61% | viability, T/C [25]: 17.9% | viability, T/C [26]: 14.8% | viability, T/C [27]: 10.7% | viability, T/C [28]: 7.29% | viability, T/C [29]: 3.77% | viability, T/C [30]: 1.49% | viability, T/C [31]: 24.6% | viability, T/C [32]: 21.4% | viability, T/C [33]: 15.2% | viability, T/C [34]: 8.61% | viability, T/C [35]: 4.18% | viability, T/C [36]: 1.5%

O=C(c1cc(Cc2n[nH]c(=O)c3ccccc23)ccc1F)N1CCN(C(=O)C2CC2)CC1 + Cc1[nH]c2ccc(F)cc2c1-c1nc2c3cccnc3c3ncccc3c2[nH]1
IC50 (second compound 0.0316 µM): 305 nM | IC50 (second compound 0.1 µM): 3060 nM | IC50 (second compound 0.316 µM): 2690 nM | IC50 (second compound 1 µM): 5550 nM | IC50 (second compound 3.16 µM): < 31.6 nM | IC50 (second compound 10 µM): 3280 nM | viability, T/C [1]: 103% | viability, T/C [2]: 79.4% | viability, T/C [3]: 46.5% | viability, T/C [4]: 58.6% | viability, T/C [5]: 50.4% | viability, T/C [6]: 40.6% | viability, T/C [7]: 100% | viability, T/C [8]: 96.5% | viability, T/C [9]: 65.2% | viability, T/C [10]: 43.7% | viability, T/C [11]: 67.6% | viability, T/C [12]: 36.9% | viability, T/C [13]: 90.1% | viability, T/C [14]: 75.3% | viability, T/C [15]: 66.7% | viability, T/C [16]: 61.6% | viability, T/C [17]: 53.7% | viability, T/C [18]: 32.4% | viability, T/C [19]: 60.6% | viability, T/C [20]: 65.7% | viability, T/C [21]: 65.6% | viability, T/C [22]: 57.9% | viability, T/C [23]: 63.4% | viability, T/C [24]: 37% | viability, T/C [25]: 39.4% | viability, T/C [26]: 40.7% | viability, T/C [27]: 43.5% | viability, T/C [28]: 43.3% | viability, T/C [29]: 31.6% | viability, T/C [30]: 29.9% | viability, T/C [31]: 34.6% | viability, T/C [32]: 64.9% | viability, T/C [33]: 57.3% | viability, T/C [34]: 41.9% | viability, T/C [35]: 54% | viability, T/C [36]: 33%
